Some test systems named below: SF-295 CNS; DU-145 prostate; NCI-H460 lung; U251 CNS; RXF 393 renal; MDA-MB-435; SW-620 colon; EKVX NSCLC; T-47D breast; MDA-N; IGROV1 ovarian; HCT-15 colon; A498 renal; NCI-H226 lung; HT29 colon; MDA-MB-231 breast.
Test in all cases: inhibition of tumour cell growth, NCI panel, 48 h

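All cell lines were grown in 96-well plates and treated with compound for 48 hours. At the TGI there is no net growth.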

On to `CCOC1CN=C(Nc2cccc3ccccc23)S1` (stereo not drawn), for which the TGI in the test on SF-295 CNS, in the test on DU-145 prostate, with NCI-H460 lung, in the test on U251 CNS, with RXF 393 renal and in the test on MDA-MB-435 was greater than 10 µM throughout. Also, the TGI in the test on SW-620 colon, in the test with EKVX NSCLC, in the test with T-47D breast, in the test on MDA-N, in the test with IGROV1 ovarian and in the test on HCT-15 colon was greater than 10 µM in each case. Further, the TGI in the test on A498 renal, with NCI-H226 lung, in the test with HT29 colon and in the test on MDA-MB-231 breast was greater than 10 µM each time.

`CC(=O)O[C@@H]1C[C@]2(C(=O)c3ccccc3)C(=O)C(=O)S[C@]12c1ccccc1`: the TGI in the test on SF-295 CNS is greater than 100 µM; in the test with DU-145 prostate, greater than 100 µM; with NCI-H460 lung, greater than 100 µM; in the test on U251 CNS, greater than 100 µM; with RXF 393 renal, 49.9 µM; in the test with MDA-MB-435, greater than 100 µM. In addition, the TGI in the test on SW-620 colon is greater than 100 µM; with EKVX NSCLC, greater than 100 µM; in the test on T-47D breast, 94.3 µM; in the test on MDA-N, greater than 100 µM; with IGROV1 ovarian, greater than 100 µM; with HCT-15 colon, greater than 100 µM. Further, the TGI with A498 renal, in the test on NCI-H226 lung, in the test with HT29 colon and in the test with MDA-MB-231 breast was greater than 100 µM throughout.

For `C[C@H](C1CC(C)(O)C(C)(O)C(O)O1)[C@H]1CC[C@H]2[C@@H]3[C@@H]4O[C@@H]4[C@@]4(O)CC=CC(=O)[C@]4(C)[C@H]3CC[C@]12C` (stereo partly drawn), the TGI in the test with SF-295 CNS, in the test with DU-145 prostate, in the test on NCI-H460 lung, with U251 CNS, in the test with RXF 393 renal and with MDA-MB-435 was greater than 50 µM each time. Also, the TGI in the test on SW-620 colon, in the test on EKVX NSCLC, in the test with T-47D breast, in the test with MDA-N, in the test with IGROV1 ovarian and in the test on HCT-15 colon was greater than 50 µM throughout. For the same compound, the TGI in the test with A498 renal, with NCI-H226 lung, with HT29 colon and in the test on MDA-MB-231 breast was greater than 50 µM in each case.

As for `CN(C)C(C1=C(O)C(c2ccccc2)N(c2ccccc2)C1=O)N1CCOCC1` (stereo not drawn), the TGI with SF-295 CNS, in the test on DU-145 prostate, with NCI-H460 lung, in the test with U251 CNS, with RXF 393 renal and in the test on MDA-MB-435 was greater than 10 µM in each case. Besides, the TGI with SW-620 colon, with EKVX NSCLC, with T-47D breast, with MDA-N, in the test on IGROV1 ovarian and in the test with HCT-15 colon was greater than 10 µM in each case. Besides, the TGI in the test with A498 renal, in the test with NCI-H226 lung, with HT29 colon and with MDA-MB-231 breast was greater than 10 µM each time.

As to `CC[C@]12C=CCN3CC[C@@]4(c5cc(N=O)c(OC)cc5N(C)[C@H]4[C@@](O)(C(=O)OC)[C@@H]1OC(C)=O)[C@@H]32`, the TGI in the test with SF-295 CNS was greater than 100 µM; in the test with DU-145 prostate, greater than 100 µM; in the test on NCI-H460 lung, greater than 100 µM; in the test on U251 CNS, 33.3 µM; with RXF 393 renal it was greater than 100 µM; in the test with MDA-MB-435, 74.8 µM. The TGI was greater than 100 µM in the test with SW-620 colon; greater than 100 µM with EKVX NSCLC; greater than 100 µM with T-47D breast; 48.5 µM in the test on MDA-N; greater than 100 µM in the test on IGROV1 ovarian; greater than 100 µM with HCT-15 colon. Moreover, the TGI in the test on A498 renal, in the test with NCI-H226 lung, in the test on HT29 colon and in the test with MDA-MB-231 breast was greater than 100 µM in each case.

In the case of `CC(/C=C/C(=O)NO)=C\C(C)C(=O)c1ccc(N(C)C)cc1` (stereo not drawn), the TGI in the test with SF-295 CNS came to 0.454 µM; with DU-145 prostate it was 0.0792 µM; with NCI-H460 lung, 0.0658 µM; in the test with U251 CNS it was 0.0354 µM; in the test on RXF 393 renal, 0.104 µM; with MDA-MB-435, 0.0467 µM. Besides, the TGI in the test on SW-620 colon was 29.8 µM; in the test on EKVX NSCLC, 41 µM; in the test on T-47D breast, greater than 100 µM; in the test on MDA-N, 11.5 µM; in the test with IGROV1 ovarian, 0.28 µM; in the test on HCT-15 colon, 21.4 µM. For the same compound, the TGI was 0.257 µM with A498 renal, 12.9 µM with NCI-H226 lung, greater than 100 µM in the test with HT29 colon and 0.0538 µM in the test with MDA-MB-231 breast.

`COC(=O)c1c([N+](=O)[O-])ncn1[C@H]1OC[C@@H](OC(C)=O)[C@@H](OC(C)=O)[C@@H]1OC(C)=O`: the TGI in the test on SF-295 CNS, in the test on DU-145 prostate, with NCI-H460 lung, in the test on U251 CNS, in the test with RXF 393 renal and in the test with MDA-MB-435 was greater than 100 µM in each case. For the same compound, the TGI in the test on SW-620 colon, with EKVX NSCLC, with T-47D breast, with MDA-N, in the test with IGROV1 ovarian and in the test with HCT-15 colon was greater than 100 µM in each case. For the same compound, the TGI in the test on A498 renal, in the test with NCI-H226 lung, in the test with HT29 colon and in the test with MDA-MB-231 breast was greater than 100 µM in each case.

`CCOC(=O)C1(C#N)OC(=O)c2cnccc21` (stereo not drawn): the TGI with SF-295 CNS, in the test on DU-145 prostate, with NCI-H460 lung, with U251 CNS, in the test on RXF 393 renal and with MDA-MB-435 was greater than 100 µM each time. For the same compound, the TGI in the test on SW-620 colon, in the test with EKVX NSCLC, with T-47D breast, with MDA-N, with IGROV1 ovarian and with HCT-15 colon was greater than 100 µM each time. Also, the TGI in the test with A498 renal, in the test on NCI-H226 lung, with HT29 colon and with MDA-MB-231 breast was greater than 100 µM in each case.

The values above are taken from PubChem BioAssay (NCI).
